In patent US6521814B1, “Use of ligands for treatment of diseases responsive to retinoids” (Institut National de la Santa et de la Recherche Medicale, priority 1997, dated 2003):

What was measured:
[1] = test system: RXRα−/− F9 cells; experiment: Apoptosis of F9 cells (Hoechst 33258 staining, FACS); assay type: cell-based, murine; conditions: 100 nM, 6 d
[2] = test system: RXRα−/−/RARα−/− F9 cells; experiment: as above; assay type: cell-based, murine; conditions: 100 nM, 6 d
[3] = test system: RARα−/− F9 cells; experiment: as above; assay type: cell-based, murine; set-up: key: (−): no visible effect; conditions: 6 d
Protocol: (§1) Apoptosis was analyzed by both Hoechst staining of nuclei and FACS® analysis, as previously described (Clifford, J., et al., EMBO J. 15:4142-4155 (1996)).

[4] = test system: RARγ−/− F9 cells; experiment: as above; assay type: cell-based, murine; conditions: 6 d
Protocol: as §1

[5] = test system: WT F9 cells; experiment: as above; assay type: cell-based, murine; conditions: 6 d
Protocol: as §1

[6] = test system: RXRα−/−/RARα−/− F9 cells; experiment: Proliferation of F9 cells in monolayer culture (cell counting, [3H]thymidine incorporation, cell cycle FACS); assay type: cell-based, murine; conditions: 1 μM, 6 d
[7] = test system: RARα−/− F9 cells; experiment: Morphological differentiation of F9 cell aggregates into visceral endoderm (VE)-like cells (morphology, RT-PCR of markers); assay type: cell-based, murine; set-up: key to proportion of outer layer of cells displaying VE morphology: +++: more than 80%; ++: 50-80%; +: 10-50%; ±: not more than 10%; (−): no visible effect; conditions: 1 μM, 10 d
Text: (§2) Similarly, after 10 d of treatment, >80% of the outer layer of RARα^−/− and RXRα^−/−/RARα^−/− cell aggregates differentiated into VE-like cells, which were indistinguishable from those of WT and RXRα^−/− cells (FIG. 23A, compare f with panels b and d; and Table 9). […] To exclude the possibility that this very poor differentiation of the RXRα^−/−/RARγ^−/− cells could be due to some clonal variation, rather than the presence of the RXRα-null mutation in the RARγ-null background, we expressed the RXRα cDNA in RXRα^−/−/RARγ^−/− cells.
(§3) F9 cells were cultured and induced to differentiate into primitive, parietal and visceral endoderm-like cells as previously described (Boylan, J., et al., Proc. Natl. Acad. Sci. USA 90:9601-9605 (1993); Clifford, J., et al., EMBO J. 15:4142-4155 (1996)).
(§4) RNA preparation, RT-PCR, and Southern blotting were performed as previously described (Bouillet, P., et al., Dev. Biol. 170:420-433 (1995); Roy, B., et al., Mol. Cell. Biol. 15:6481-6487 (1995)). The PCR primers and end-labeled oligonucleotide probes for collagen IVα1, laminin B1, α-fetoprotein (AFP), and 36B4, were described previously (Clifford, J., et al ., EMBO J. 15:4142-4155 (1996)). Transcript levels were quantified using a BAS 2000 bioimaging analyzer (Fuji Ltd., Tokyo, Japan), and were normalized to the corresponding 36B4 signals.

[8] = test system: WT F9 cells; experiment: as above; assay type: cell-based, murine; set-up: key to proportion of outer layer of cells displaying VE morphology: +++: more than 80%; ++: 50-80%; +: 10-50%; ±: not more than 10%; (−): no visible effect; conditions: WT; 1 μM; 10 d
Text: as §2, §3, §4

[9] = test system: RARγ−/− F9 cells; experiment: Proliferation of F9 cells in monolayer culture (cell counting, [3H]thymidine incorporation, cell cycle FACS); assay type: cell-based, murine; conditions: 1 μM, 6 d
Protocol: (§5) Cells were plated in triplicate 3-cm culture wells (5×10^2 cells per well), and cell counting experiments were performed as previously described (Clifford, J., et al., EMBO J. 15:4142-4155 (1996)). [^3H]Thymidine incorporation assays were performed essentially as described (Clifford, J., et al., EMBO J. 15:4142-4155 (1996)), with the following modifications. […] The cell cycle profile of WT and mutant cells was determined as previously described (Clifford, J., et al. EMBO J. 15:4142-4155 (1996)).

[10] = test system: RARα−/− F9 cells; experiment: as above; assay type: cell-based, murine; conditions: 1 μM, 6 d
Protocol: as §5

[11] = test system: WT F9 cells; experiment: as above; assay type: cell-based, murine; conditions: 1 μM, 6 d
Protocol: as §5

[12] = test system: RXRα−/− F9 cells; experiment: as above; assay type: cell-based, murine; conditions: 1 μM, 6 d
[13] = test system: RARγ−/− F9 cells; experiment: Morphological differentiation of F9 cell aggregates into visceral endoderm (VE)-like cells (morphology, RT-PCR of markers); assay type: cell-based, murine; set-up: key to proportion of outer layer of cells displaying VE morphology: +++: more than 80%; ++: 50-80%; +: 10-50%; ±: not more than 10%; (−): no visible effect; conditions: RARγ−/−; 1 μM; 10 d
Protocol: as §3, §4

[14] = test system: RXRα−/−/RARγ−/− F9 cells; experiment: Proliferation of F9 cells in monolayer culture (cell counting, [3H]thymidine incorporation, cell cycle FACS); assay type: cell-based, murine; conditions: 1 μM, 6 d
[15] = target: mouse RXRγ (mouse) (UniProt P28705); experiment: cell-based or functional assay
Chain of mouse RXRγ (mouse) (P28705 whole entry): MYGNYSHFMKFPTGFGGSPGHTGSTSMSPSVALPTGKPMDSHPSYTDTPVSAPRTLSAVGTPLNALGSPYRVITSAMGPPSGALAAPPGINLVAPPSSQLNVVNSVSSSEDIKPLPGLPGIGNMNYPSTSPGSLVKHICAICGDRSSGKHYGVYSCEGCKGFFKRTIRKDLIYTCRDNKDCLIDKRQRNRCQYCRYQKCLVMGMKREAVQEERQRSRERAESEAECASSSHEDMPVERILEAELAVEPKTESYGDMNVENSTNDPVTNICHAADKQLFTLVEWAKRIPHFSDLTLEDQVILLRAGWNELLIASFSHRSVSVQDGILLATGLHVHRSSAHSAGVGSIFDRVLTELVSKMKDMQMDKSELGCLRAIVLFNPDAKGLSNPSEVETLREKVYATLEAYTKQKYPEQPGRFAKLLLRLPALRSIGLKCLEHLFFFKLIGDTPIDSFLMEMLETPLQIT

**Q.** For CC1(C)CCC(C)(C)c2cc(NC(=O)c3ccc(C(=O)O)cc3)ccc21 [panRAR agonist], which “proportion of apoptotic nuclei and subcellular fragments (Hoechst 33258)” value (from here on “proportion … (Hoechst 33258)”) [1] is on record?
**A.** Its value is “±* (asterisks less than that in combination with 1 μM panRXR agonist)”.

**Q.** And the “proportion … (Hoechst 33258)” value [2]?
**A.** The value was “±* (asterisks less than that in combination with 1 μM panRXR agonist)”.

**Q.** And the “proportion … (Hoechst 33258)” value ([3]; 100 nM)?
**A.** The value was “+ (>1-10%)”.

**Q.** And the “proportion … (Hoechst 33258)” value ([4]; 100 nM)?
**A.** Its value is “± (<1%)”.

**Q.** And the “proportion … (Hoechst 33258)” value ([5]; 100 nM)?
**A.** The value was “+ (>1-10%)”.

**Q.** Which “number of cells in percent relative to cells grown in 0.1% ethanol” value [6] does the source give for CC1(C)CCC(C)(C)c2cc(C3(c4ccc(C(=O)O)cc4)OCCO3)ccc21 [panRXR agonist] here?
**A.** The value was 100%.

**Q.** What about the “proportion … (Hoechst 33258)” value ([3]; 1 μM) of the same compound?
**A.** The value was “(−)”.

**Q.** What about the “proportion of outer layer of cells displaying VE morphology” value [7] of the same compound?
**A.** The value was “(−)”.

**Q.** What about the “proportion of outer layer of cells displaying VE morphology” value [8] of the same compound?
**A.** Its value is “(−)”.

**Q.** And the “number of cells in percent relative to cells grown in 0.1% ethanol” value [9]?
**A.** Its value is 100%.

**Q.** What about the “number of cells in percent relative to cells grown in 0.1% ethanol” value [10] of the same compound?
**A.** Its value is 100%.

**Q.** And the “number of cells in percent relative to cells grown in 0.1% ethanol” value [11]?
**A.** Its value is 100%.

**Q.** What about the “number of cells in percent relative to cells grown in 0.1% ethanol” value [12] of the same compound?
**A.** Its value is 100%.

**Q.** What about the “proportion of outer layer of cells displaying VE morphology” value [13] of the same compound?
**A.** Its value is “(−)”.

**Q.** And the “number of cells in percent relative to cells grown in 0.1% ethanol” value [14]?
**A.** The value was 100%.

**Q.** What about the “proportion … (Hoechst 33258)” value ([4]; 1 μM) of the same compound?
**A.** Its value is “(−)”.

**Q.** And the “proportion … (Hoechst 33258)” value ([5]; 1 μM)?
**A.** Its value is “(−)”.

**Q.** For “mouse RARα (from UniProt P11416 1-462) (receptor)”, which CAT activity of the C1 reporter (D2R promoter) in COS-1 cells cotransfected with RARα and RXRγ, in the presence of t-RA and 9-cis-RA [15] is on record?
**A.** The CAT activity of the C1 reporter (D2R promoter) in COS-1 cells cotransfected with RARα and RXRγ, in the presence of t-RA and 9-cis-RA was 45 fold.

**Q.** And the CAT activity of the C2 reporter in COS-1 cells coexpressing RARα/RXRγ, in the presence of t-RA and 9-cis-RA [15]?
**A.** The CAT activity of the C2 reporter in COS-1 cells coexpressing RARα/RXRγ, in the presence of t-RA and 9-cis-RA was 66 fold.

**Q.** What about the CAT activity of the C3 reporter (D2R RARE upstream of the TK promoter) in COS-1 cells cotransfected with RARα/RXRγ, in the presence of t-RA and 9-cis-RA [15] of the same compound?
**A.** The CAT activity of the C3 reporter (D2R RARE upstream of the TK promoter) in COS-1 cells cotransfected with RARα/RXRγ, in the presence of t-RA and 9-cis-RA was 11 fold.
